Measurements taken from patent publication US6015829A, “1-phenylpyrazole compounds and medicinal application thereof” (Yoshitomi Pharmaceutical Industries, ltd., priority 1996, dated 2000).

Tested on: uric acid value of mouse serum
Assay: Lowering of Uric Acid Value of Mouse Serum
Format: in vivo
Conditions: male ICR mice, 0.3 mg/kg into the stomach
Protocol: Lowering of Uric Acid Value of Mouse Serum
A sample suspended in 0.5% aqueous hydroxypropyl methyl cellulose (HPMC) solution was forcibly administered into the stomach of 4 to 6 week-old male ICR mice (4 per group) in a dose of 0.3 mg/kg using an oral sound probe. At 2 and 6 hours after the administration of the sample, mice were anesthetized with halothane. Blood samples were taken from both carotid arteries and the mice were exsanguinated. The blood was stood at room temperature for 20-30 minutes and centrifuged at 2000×g for 15 minutes to give serum. The uric acid value was measured using a uric acid measurement kit (manufactured by Wako Pure Chemicals Co.) by phosphotungstic acid method. The obtained values were applied to the following formula to give uric acid value decrease percentage at 2 and 6 hours after the administration of the sample.
Uric acid value decrease (%)=(1-average uric acid value of group administered with sample/average uric acid value of group administered with HPMC)×100

## Oc1ncnc2[nH]ncc12 [allopurinol]
2 hours after administration
  Uric acid value decrease (%) at 2 hours: 33%
6 hours after administration
  Uric acid value decrease (%) at 6 hours: 14%
